Measured values taken from patent US9657088B2, “Anti-HSV antibody” (priority 2009, dated 2017).
Entries after “also recorded” stand apart in the source; their conditions may differ. Like-named read-outs stand apart in the source and are kept apart here.

Assays:
HSV-1 = test: Plaque-reduction assay with or without human complement; assay type: cell-based; details: 2 μg/ml, with or without 10% human complement
HSV-1 F [1] = test: Cell-to-cell spread assay in Vero cell monolayers; assay type: cell-based; details: 500 nM, 48 h
Experimental: Vero cells grown to confluency on glass cover slips in 24-weel tissue culture plates are infected for 4 h at 37° C. with a constant virus amount of 400 TCID50/well. One median tissue culture infective dose (1 TCID50) is the amount of a cytopathogenic agent, such as a virus, that will produce a cytopathic effect in 50% of the cell cultures inoculated. The virus inoculum is subsequently removed, the cells washed twice with PBS and further incubated for 2 days at 37° C. in 1 ml DMEM, 2% FCS, Pen/Strep containing an excess of either different anti-HSV antibodies or polyclonal anti-HSV control serum in order to prevent viral spreading via the supernatant Viral antigens of HSV-infected cells are detected with a fluorescence labelled polyclonal goat-anti-HSV-serum (BETHYL Labolatories, Montgomery, Tex. USA, Catalog No. A190-136F, Lot No. A190-136F-2).
Two days after infection spreading of the virus was detected with fluorescence labeled polyclonal goat-anti-HSV serum using a Leica DM IRE2 confocal microscope at 40-fold magnification.
For spreading within a host HSV uses two mechanisms: release of cell-free particles and direct, cell-to-cell spread. […] Viral antigens were detected by staining of HSV-1 infected cell monolayers with FITC-conjugated polyclonal goat-anti-HSV serum (BETHYL, Montgomery, Tex., USA) diluted 1:100 in blocking buffer. […]

HSV-1 F [2] = test: Passive immunization of NOD/SCID mice 24 h before intravaginal HSV-1 challenge; assay type: in vivo
Experimental: Mice were infected intravaginally with 1×10^6 TCID50/20 μl of the neurovirulent HSV-1 strain F. Infected mice with symptoms of weight loss, vulvitis/vaginitis or neurological diseases were killed, and their organs examined for infectious virus by titration on Vero cell monolayers as described previously. Non-infected mice were killed at day 30. Animals per group n=7.
Animals per group n=7 for PBS, n=9 all other groups.
Anesthetized female nonobese diabetic/severe combined immunodeficient (NOD-SCID) mice (NOD.CB17-Prkdc^scid/J, Charles River Laboratories, Research Models and Services, Sulzfeld, Germany), 6-8 weeks of age, were challenged intravaginally with 20 μl inoculum of 1×10^6 TCID50 HSV-1 F per mouse. Skin glue (Epiglu, Meyer-Haake Medical Innovations, Wehrheim, Germany) was applied onto the vulva to prevent discharge of the virus inoculum. […] Mice were examined daily after viral inoculation for loss of weight, vulvitis/vaginitis (redness, mucopurulent discharge and signs of inflammation) and neurological disease. Mice displaying any of theses symptoms were sacrificed immediately. […] Mice were assessed for infection by determination of virus titers from vaginal irrigations obtained on days 1, 2, 4, 6 and 8 after infection and at the time of death using the endpoint dilution assay on Vero cells. Viral loads in organs (spleen, adrenal gland, lung heart, liver, kidney, spinal cord, and brain) of sacrificed mice were determined after homogenization of organs by titration on Vero cell monolayers as described elsewhere (41). Each test and control group contained 9-10 animals with detectable HSV-1 infection.
Natural killer (NK) cells accumulating at the site of HSV-2 infection in humans (28) are the early source of interferon-γ (45), which plays an essential role for the control of HSV infection (2, 45, 62).

HSV1 strain 342 hv [3] = test: Intravaginal HSV1 infection of C57BL/6J mice, i.p. antibody; assay type: in vivo; details: i.p. post infection
Description: Therefore, C57BL/6J mice were infected by application of the HSV1 strain 342 hv on the intact vaginal mucosa membrane.

[4] = test system: truncated HSV-1 glycoprotein B (gB) expressed in COS-1 cells; assay type: binding
HSV-1 F [5] = test: Pre- versus post-attachment neutralization assay; assay type: cell-based; details: 100 TCID50 HSV-1, 4° C., Vero cells
Experimental: The highest antibody and polyvalent human IgG titer, respectively, preventing virus induced cytopathic effect (CPE) in ten individual inoculated cell monolayers to 100% and 50% relative to controls were determined after 72 h incubation at 37° C. and being considered as the endpoint. Standard errors of the mean of three independent experiments were <0.1.
Neutralization titers were determined after 72 h as described in the standard neutralization assay above.

HSV1 strain 342 hv [6] = details: administration 24 h prior to viral inoculation; cited from earlier work

Substance: mAb 2c: murine monoclonal IgG2a antibody specific for glycoprotein B of HSV1 and HSV2; VH SEQ ID NO: 9, VL SEQ ID NO: 10
- complement dependence of HSV neutralization (HSV-1): neutralize HSV complement-independent
- inhibition of cell-to-cell spread (HSV-1 F [1]): inhibit at a concentration of 500 nM the cell-to-cell spread completely; also recorded: completely abrogated HSV-1 spread
- Median survival time prolonged compared to PBS control (HSV-1 F [2]; 5 mg/kg i.v., 24 h prior to challenge): 2.6 fold
- protection against lethal encephalitis (HSV-1 F [2]; 15 mg/kg i.v., 24 h prior to infection): fully protected against lethal encephalitis; also recorded: full protection
- Viral titres in organs of protected mice (HSV-1 F [2]; 15 mg/kg, detection limit): < 1×10^2 TCID50
- protection against lethal infection (HSV-1 F [2]; low antibody doses (2.5 mg/kg, 5 mg/kg)): not fully protected against lethal infection
- survival (HSV-1 F [2]; single i.v. dose of 5 mg/kg, 24 h prior to infection): prolongs the survival
- inhibition of viral replication and prevention of lethal disease (HSV1 strain 342 hv [3]; CD4+ and CD8+ depleted animals): capable to inhibit viral replication as well as to prevent a generalized, lethal progressing disease with a high efficiency
- inhibition of viral propagation in vaginal mucosa and inflammatory lesions (HSV1 strain 342 hv [3]; immunocompetent and CD4+ T cell depleted animals): capable of inhibiting the viral propagation in the vaginal mucosa membrane and the formation of inflammatory lesions
- Reactivity ([4]; gB(1-470)): −
- Reactivity ([4]; gB(1-487)): +
- Reactivity ([4]; gB(1-503)): +
- Reactivity ([4]; gB(1-505)): +
- Reactivity ([4]; gB(1-630)): +
- Reactivity ([4]; gB(1-720)): +
- Reactivity ([4]; gB(1-904) (full length gB)): +
- Reactivity ([4]; pSVL, expression vector, negative control): −
- pre-attachment versus post-attachment neutralization (HSV-1 F [5]): Equal neutralization efficacy
- protection against infection (HSV1 strain 342 hv [6]): efficiently protected the animals against infection
